Article PMC9303312, “Balancing Histone Deacetylase (HDAC) Inhibition and Drug‐likeness: Biological and Physicochemical Evaluation of Class I Selective HDAC Inhibitors” (Chemmedchem, 2022)
Converted amounts (≈) assume the structure as drawn. Like-named read-outs stand apart in the source and are kept apart here.

Tests used:
HDAC1 [1] = molecular target: T1, HDAC1 (Homo sapiens, UniProt Q13547); assay: In vitro HDAC inhibition preincubation assay (ZMAL substrate)
HDAC3/NcoR2 = HDAC3/NcoR2 (Homo sapiens, UniProt O15379); assay: as above
HDAC3/NcoR2, sequence (O15379 whole entry): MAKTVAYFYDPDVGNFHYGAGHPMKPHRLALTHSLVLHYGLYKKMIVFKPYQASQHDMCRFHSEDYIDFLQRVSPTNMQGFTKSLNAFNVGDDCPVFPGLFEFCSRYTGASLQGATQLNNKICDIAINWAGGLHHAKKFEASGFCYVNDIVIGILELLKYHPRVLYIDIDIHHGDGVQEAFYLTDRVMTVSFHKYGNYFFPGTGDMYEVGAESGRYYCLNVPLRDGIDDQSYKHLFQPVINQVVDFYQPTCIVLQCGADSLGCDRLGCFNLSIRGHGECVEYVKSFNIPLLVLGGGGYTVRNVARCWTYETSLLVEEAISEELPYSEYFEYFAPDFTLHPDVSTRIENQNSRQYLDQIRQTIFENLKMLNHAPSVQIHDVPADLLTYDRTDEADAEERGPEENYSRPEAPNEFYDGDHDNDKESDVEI
HDAC3/NcoR2, sequence (Q9Y618 395-489 partner limits assumed): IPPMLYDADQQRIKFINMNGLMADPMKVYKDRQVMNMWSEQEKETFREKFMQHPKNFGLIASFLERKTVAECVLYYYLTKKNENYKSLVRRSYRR

[2] = LogD7.4 by OECD slow-stirring method with HPLC quantification; details: 1-octanol/PBS buffer (mutually saturated)
HDAC2 [3] = molecular target: T2, HDAC2 (Homo sapiens, UniProt Q92769); assay: In vitro HDAC inhibition preincubation assay (ZMAL substrate)
T2 sequence (Q92769 whole entry): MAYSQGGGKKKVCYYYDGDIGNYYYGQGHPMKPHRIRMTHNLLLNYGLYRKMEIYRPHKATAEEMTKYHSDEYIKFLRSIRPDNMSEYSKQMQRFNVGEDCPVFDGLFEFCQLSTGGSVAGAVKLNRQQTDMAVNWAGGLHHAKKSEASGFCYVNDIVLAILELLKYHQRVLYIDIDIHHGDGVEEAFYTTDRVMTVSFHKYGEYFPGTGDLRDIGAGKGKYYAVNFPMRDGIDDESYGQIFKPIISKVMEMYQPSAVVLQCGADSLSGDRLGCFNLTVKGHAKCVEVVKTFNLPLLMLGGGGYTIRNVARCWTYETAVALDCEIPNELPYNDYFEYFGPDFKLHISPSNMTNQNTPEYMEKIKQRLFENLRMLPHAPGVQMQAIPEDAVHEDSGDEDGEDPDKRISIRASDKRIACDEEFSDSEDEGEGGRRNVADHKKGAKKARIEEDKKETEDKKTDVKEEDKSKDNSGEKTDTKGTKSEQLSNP

human recombinant HDAC6 = molecular target: T3, human recombinant HDAC6 (Homo sapiens, UniProt Q9UBN7); assay: as above
T3 sequence (Q9UBN7 1-1215): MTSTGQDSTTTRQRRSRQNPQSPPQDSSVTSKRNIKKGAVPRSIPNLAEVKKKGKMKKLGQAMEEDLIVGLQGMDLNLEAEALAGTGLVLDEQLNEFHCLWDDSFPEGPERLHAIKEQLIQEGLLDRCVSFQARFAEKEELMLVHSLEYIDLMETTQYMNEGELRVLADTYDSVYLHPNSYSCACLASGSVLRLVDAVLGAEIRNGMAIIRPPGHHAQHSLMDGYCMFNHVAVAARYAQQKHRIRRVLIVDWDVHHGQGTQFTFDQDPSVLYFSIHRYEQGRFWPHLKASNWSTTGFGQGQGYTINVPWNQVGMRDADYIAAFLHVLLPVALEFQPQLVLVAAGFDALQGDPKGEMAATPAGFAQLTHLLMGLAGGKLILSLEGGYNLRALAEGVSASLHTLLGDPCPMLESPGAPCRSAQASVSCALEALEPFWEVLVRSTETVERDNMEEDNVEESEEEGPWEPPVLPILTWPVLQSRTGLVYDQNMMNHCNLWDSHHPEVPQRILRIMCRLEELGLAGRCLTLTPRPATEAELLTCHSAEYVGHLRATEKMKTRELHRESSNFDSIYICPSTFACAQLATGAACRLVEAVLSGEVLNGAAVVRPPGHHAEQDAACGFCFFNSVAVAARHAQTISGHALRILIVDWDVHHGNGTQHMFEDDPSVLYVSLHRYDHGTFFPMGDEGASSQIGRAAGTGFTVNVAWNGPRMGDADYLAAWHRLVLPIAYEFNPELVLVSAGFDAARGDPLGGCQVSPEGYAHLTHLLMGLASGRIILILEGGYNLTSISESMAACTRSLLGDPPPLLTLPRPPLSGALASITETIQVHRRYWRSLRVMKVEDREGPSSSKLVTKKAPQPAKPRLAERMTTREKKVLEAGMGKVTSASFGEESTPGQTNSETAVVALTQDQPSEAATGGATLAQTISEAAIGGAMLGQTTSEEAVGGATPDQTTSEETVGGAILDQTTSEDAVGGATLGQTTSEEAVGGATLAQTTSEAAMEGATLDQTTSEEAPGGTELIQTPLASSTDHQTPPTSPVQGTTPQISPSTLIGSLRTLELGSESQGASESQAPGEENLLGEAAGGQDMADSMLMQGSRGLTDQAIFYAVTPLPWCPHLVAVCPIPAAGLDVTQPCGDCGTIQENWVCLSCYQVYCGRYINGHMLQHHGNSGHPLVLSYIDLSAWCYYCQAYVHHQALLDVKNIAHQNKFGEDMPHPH

[4] = Solubility in PBS buffer by OECD flask method with HPLC quantification; assay type: physicochemical
HDAC2 [5] = molecular target: T2, HDAC2; assay: IC50-shift experiments (varied preincubation time); assay type: biochemical; design: purchased BPS Bioscience 50052; details: triplicates
HDAC1 [6] = molecular target: T1, HDAC1; assay: Binding kinetics via the Progression Method; assay type: biochemical; details: relationship between kobs and [I]; triplicates
HDAC1 [7] = molecular target: T1, HDAC1; assay: IC50-shift experiments (varied preincubation time); assay type: biochemical; details: triplicates
[8] = test system: BT‐474 breast cancer cell line; assay: WST-8 cell viability assay; details: Homo sapiens, BT-474, 120 h, read-out: IC50 BT‐474
MCF‐7 cells = assay: Modified wound healing (migration) assay; assay type: cell-based, human; details: MCF-7, 10 μM, followed over 97 h, compared to DMSO control
[9] = test system: T‐47D breast cancer cell line; assay: WST-8 cell viability assay; details: Homo sapiens, T47D, 120 h, read-out: IC50 T‐47D
HDAC1 [10] = molecular target: T1, HDAC1; assay: 100-fold Jump-Dilution experiments; assay type: biochemical; details: diluted inhibitor concentration as indicated per compound, vehicle [DMSO 1 %]=111.9
[11] = test system: acetylated α‐tubulin (HDAC6 activity) in MCF‐7 cells; assay: Western blot target engagement in MCF-7 cells: acetylated α-tubulin; assay type: cell-based, human; details: MCF-7 cell lysates after 24-hour treatment
[12] = test system: MCF‐7 breast cancer cell line; assay: WST-8 cell viability assay; details: Homo sapiens, MCF7, 120 h, read-out: IC50 MCF‐7
HDAC3 = HDAC3 (Homo sapiens, UniProt O15379); assay: Binding kinetics via the Progression Method; assay type: biochemical
HDAC3, sequence (O15379 whole entry): as the sequence (O15379 whole entry) above
HDAC3, sequence (Q9Y618 395-489 partner limits assumed): as the sequence (Q9Y618 395-489 partner limits assumed) above

[13] = pH 7.4, LogD7.4, slow-stirring method, 1-octanol/PBS buffer pH 7.4, 25 °C, 48 h
[14] = 25 °C, pH 7.4, aqueous buffer, thermodynamic from solid, pH=7.4, flask method, 25 °C, 72 h, mean ±SD, read-out: Solubility
[15] = HDAC2 IC50, preincubation 5 min, preincubation time 5 min at 20°C
[16] = HDAC2 IC50, preincubation 15 min, preincubation time 15 min at 20°C
[17] = HDAC2 IC50, preincubation 30 min, preincubation time 30 min at 20°C
[18] = HDAC2 IC50, preincubation 60 min, preincubation time 60 min at 20°C
[19] = HDAC2 IC50, preincubation 120 min, preincubation time 120 min at 20°C

T1 sequence (Q13547 whole entry): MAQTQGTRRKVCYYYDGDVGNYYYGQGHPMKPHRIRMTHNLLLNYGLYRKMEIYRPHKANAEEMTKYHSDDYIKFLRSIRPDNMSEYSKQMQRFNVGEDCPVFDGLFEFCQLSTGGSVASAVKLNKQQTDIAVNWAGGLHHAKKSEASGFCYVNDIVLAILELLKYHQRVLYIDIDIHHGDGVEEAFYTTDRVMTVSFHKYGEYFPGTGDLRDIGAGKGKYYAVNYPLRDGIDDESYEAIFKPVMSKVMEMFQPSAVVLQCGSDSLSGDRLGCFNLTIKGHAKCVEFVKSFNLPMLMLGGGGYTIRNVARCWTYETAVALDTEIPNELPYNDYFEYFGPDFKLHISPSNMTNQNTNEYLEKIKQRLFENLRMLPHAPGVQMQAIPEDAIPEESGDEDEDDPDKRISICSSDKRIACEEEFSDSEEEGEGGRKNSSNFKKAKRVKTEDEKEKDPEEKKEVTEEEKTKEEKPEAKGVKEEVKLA

Compound | IC50 (HDAC1 [1]) [nM] | IC50 (HDAC3/NcoR2) [nM] | logD at 48 h [2, 13] | IC50 (HDAC2 [3]) [nM] | IC50 (human recombinant HDAC6) [nM] | solubility at 72 h [4, 14] [µg/mL] | IC50 [8] [nM] | IC50 [9] [nM] | IC50 [12] [nM] | other results
CC(=O)Nc1ccc(C(=O)Nc2cc(-c3cccs3)ccc2N)cc1 [6 c] | – | – | 2.8 | – | – | 0.74 ± 0.01 (≈ 2.11 µM) | – | – | – | –
CC(=O)Nc1ccc(C(=O)Nc2cc(-c3ccncc3)ccc2N)cc1 [6 d] | 13.2 ± 1 | 8910 | 1.75 | 77.2 ± 9.2 | > 10000 | 16.5 ± 0.3 (≈ 47.6 µM) | > 8000 | 1010 ± 190 | 11100 ± 3850 | IC50 (HDAC2 [5]; [15]): 98.2 nM; IC50 (HDAC2 [5]; [16]): 89 nM; IC50 (HDAC2 [5]; [17]): 83 nM; IC50 (HDAC2 [5]; [18]): 77.4 nM; IC50 (HDAC2 [5]; [19]): 63.2 nM; binding mechanism at HDAC1 (HDAC1 [6]): slow‐binding Mechanism II; IC50 (HDAC1 [7]; HDAC1 IC50, preincubation 5 min, preincubation time 5 min at 20°C): 54.1 nM; IC50 (HDAC1 [7]; HDAC1 IC50, preincubation 15 min, preincubation time 15 min at 20°C): 53.5 nM; IC50 (HDAC1 [7]; HDAC1 IC50, preincubation 30 min, preincubation time 30 min at 20°C): 44.5 nM; IC50 (HDAC1 [7]; HDAC1 IC50, preincubation 60 min, preincubation time 60 min at 20°C): 40.8 nM; IC50 (HDAC1 [7]; HDAC1 IC50, preincubation 120 min, preincubation time 120 min at 20°C): 25.4 nM; effect on cell migration (wound closure) (MCF‐7 cells): attenuated cell migration significantly; selectivity for HDAC1 over HDAC3 (HDAC1 [1]; ratio of IC50 values HDAC3/HDAC1): 675 fold; Final slope of progression curve after 100-fold dilution (HDAC1) (HDAC1 [10]): 39.4 RFU*min^−1; acetylated α‐tubulin (western blot) [11]: non‐detectable
CC(=O)Nc1ccc(C(=O)Nc2cc(-c3cccnc3)ccc2N)cc1 [6 e] | 76.7 ± 9.2 | 636 ± 49.5 | 1.7 | 101 ± 5.4 | > 10000 | 37.7 ± 3.61 (≈ 109 µM) | – | – | – | –
CC(=O)Nc1ccc(C(=O)Nc2cc(-c3ccccn3)ccc2N)cc1 [6 f] | 207 ± 4.4 | 17400 | 1.77 | 333 ± 5.1 | > 10000 | 42 ± 0.19 (≈ 121 µM) | – | – | – | –
CC(=O)Nc1ccc(C(=O)Nc2cc(-c3cccnc3F)ccc2N)cc1 [6 h] | 153 ± 22.1 | 2870 | 1.79 | 228 ± 7.8 | > 10000 | 1.58 ± 0.14 (≈ 4.34 µM) | – | – | – | –
CC(=O)Nc1ccc(C(=O)Nc2cc(-c3ccnc(F)c3)ccc2N)cc1 [6 i] | 329 ± 20.8 | 5870 | 2.2 | 211 ± 5.4 | > 10000 | 3.72 ± 0.44 (≈ 10.2 µM) | – | – | – | –
CN(C)c1ccc(C(=O)N(CC(=O)NC2CCCCC2)Cc2ccc(C(=O)Nc3cc(-c4ccncc4)ccc3N)cc2)cc1 [10 b] | 41.1 ± 3.7 | > 3330 | 2.68 | 85.5 ± 11.6 | > 10000 | 1.99 ± 0.04 (≈ 3.29 µM) | 2930 ± 430 | 1450 ± 90 | 4330 ± 1540 | –
CN(C)c1ccc(C(=O)N(CC(=O)NC(C)(C)C)Cc2ccc(C(=O)Nc3cc(-c4ccncc4)ccc3N)cc2)cc1 [10 c] | – | 16800 | 2.29 | 59.3 ± 7.9 | > 10000 | 7.48 ± 0.33 (≈ 12.9 µM) | 2550 ± 400 | 1580 ± 480 | 1620 ± 320 | IC50 (HDAC2 [5]; [15]): 117 nM; IC50 (HDAC2 [5]; [16]): 106 nM; IC50 (HDAC2 [5]; [17]): 109 nM; IC50 (HDAC2 [5]; [18]): 84 nM; IC50 (HDAC2 [5]; [19]): 78.1 nM; effect on cell migration (wound closure) (MCF‐7 cells): attenuated cell migration comparably and significantly; effect on cell migration (wound closure) (MCF‐7 cells; listed as LSH‐A54): attenuated cell migration significantly; acetylated α‐tubulin (western blot) [11]: non‐detectable
Nc1ccccc1NC(=O)c1ccc(CNC(=O)OCc2cccnc2)cc1 [entinostat, reference compound] | – | – | – | – | – | – | 7090 ± 1000 | 2910 ± 890 | 8980 ± 3000 | binding mechanism at HDAC1 (HDAC1 [6]): slow-binding Mechanism II; effect on cell migration (wound closure) (MCF‐7 cells): no significant effect on cell migration; acetylated α‐tubulin (western blot) [11]: non‐detectable
O=C(CCCCCCC(=O)Nc1ccccc1)NO [vorinostat, reference compound] | – | – | 0.99 | – | – | 255 ± 3.71 (≈ 965 µM) | – | – | – | binding mechanism at HDAC1 (HDAC1 [6]): fast‐on/fast‐off binding kinetic; logD at 48 h ([2]; pH 7.4, LogD(7.4) (I), single slow-stirring experiment I): 1.01; logD at 48 h ([2]; pH 7.4, LogD(7.4) (II), single slow-stirring experiment II): 0.962; logD at 48 h ([2]; pH 7.4, LogD(7.4) (III), single slow-stirring experiment III): 0.999; binding mechanism at HDAC3 (HDAC3): fast‐on/fast‐off binding kinetic; solubility at 72 h ([4]; 25 °C, pH 7.4, aqueous buffer, thermodynamic from solid, PBS buffer pH 7.4, single experiment II, read-out: Solubility (II)): 259 µg/mL (≈ 980 µM); solubility at 72 h ([4]; pH 7.4, PBS buffer pH 7.4, mean of two experiments (SD 0.00371), read-out: Solubility): 255 µg/mL (≈ 966 µM); solubility at 72 h ([4]; pH 7.4, PBS buffer pH 7.4, single experiment I, read-out: Solubility (I)): 252 µg/mL (≈ 952 µM)

The next lines start with results.

IC50 (HDAC1 [1]) [nM] | IC50 (HDAC3/NcoR2) [nM] | logD at 48 h [2, 13] | IC50 (HDAC2 [3]) [nM] | IC50 (human recombinant HDAC6) [nM] | solubility at 72 h [4, 14] [µg/mL] | IC50 [8] [nM] | IC50 [9] [nM] | IC50 [12] [nM] | Compound | other results
4.5 ± 0.1 | 3960 | 2.63 | 51.4 ± 4.9 | > 10000 | 1.49 ± 0.14 (≈ 4.31 µM) | – | – | – | CC(=O)Nc1ccc(C(=O)Nc2cc(-c3ccccc3)ccc2N)cc1 [6 a] | –
4.4 ± 0.1 | 2000 | 3.41 | 44.7 ± 6.9 | > 10000 | 0.45 ± 0.04 (≈ 1.24 µM) | – | – | – | CC(=O)Nc1ccc(C(=O)Nc2cc(-c3ccc(F)cc3)ccc2N)cc1 [6 b] | –
93.5 ± 2.4 | 767 ± 31.7 | 1.97 | 118 ± 4 | > 10000 | 7.66 ± 0.08 (≈ 21 µM) | – | – | – | CC(=O)Nc1ccc(C(=O)Nc2cc(-c3ccc(F)nc3)ccc2N)cc1 [6 g] | –
41.8 ± 0.2 | > 6670 | – | 100 ± 2.6 | – | – | 3930 ± 560 | 2570 ± 930 | 3240 ± 820 | CN(C)c1ccc(C(=O)N(CC(=O)NCc2ccccc2)Cc2ccc(C(=O)Nc3cc(-c4ccncc4)ccc3N)cc2)cc1 [10 a] | –
– | – | 0.84 | – | – | 200 ± 1.8 (≈ 743 µM) | – | – | – | CC(=O)Nc1ccc(C(=O)Nc2ccccc2N)cc1 [CI‐994, tacedinaline, reference compound] | –
